{"source": "patent US4818752A", "about": "(Bioglucans, L.P., priority 1987, dated 1989)", "key": {"[1]": {"test_system": "bone marrow cells", "experiment": "Bone marrow cell proliferation in vitro after in vivo treatment", "type": "cell-based, mouse (C57BL/6J)", "experimental": "Bone marrow cells were obtained from the four groups of male C5BL/6J mice described in Section 7.5, supra. […] Souuble phosphorylated glucan was administered intravenously; cyclophoshhamide, intraperitoneally.\nThe bone marrow cells were centrifuged, washed twice and resuspended at a concentration of 1×10^7 cells/ml."}, "[2]": {"test_system": "reticulum cell sarcoma M5076", "experiment": "Primary tumor growth, metastasis and survival, reticulum cell sarcoma M5076", "description": "One hundred twenty C57BL/6J mice (Jackson Laboratories, Bar Harbor, Me.) were divided into 4 groups of 30 each. All mice received subcutaneous injection of 1.0×10^4 reticulum cell sarcoma cells M5076. Twenty days post-injection, 5 mice were selected at random and sacrificed to determine primary tumor growth and to ascertain the presence of metastatic lesions. […] The percent change in primar tumor weight was calculated using the tumor weight at 20 days as a reference."}, "[3]": {"test_system": "splenocytes", "experiment": "Splenocyte proliferation and response to mitogens after in vivo treatment", "type": "cell-based, mouse (C57BL/6J)", "experimental": "Thirty two male C57BL/6J mice were divided into four groups of eight each.\nSpelnocytes were obtained from the four groups of animals described in Section 7.5, supra.\nErythrocytes were removed by hypotonic lysis. Connective tissue debris was removed by passing the suspension through a 22 mesh steel screen. The cells were washed twice, centrifuged and diluted to 1×10^7 cells/ml. […] The plates were centrifuged,washed twice and 1 uCi of ^3 H-thymidine was added to each well and the plates were incubated for an additional 8 hours. […] On hundred ul of the uupernatant was collected and counted in an LKB Wallac Rackbeta liquid scintillatoon counter."}, "[4]": {"test_system": "sarcoma M5076 cells", "experiment": "Kupffer cell in vitro tumoricidal activity against sarcoma M5076 after in vivo treatment", "type": "cell-based, mouse (C57BL/6J)", "experimental": "Thirty two male C57BL/6J mice were divided into four groups of eight each. […] Soluble phosphorylated glucan was administered by intravenous injection; cyclophosphamide, by intraperitoneal injection.\nOn day 12, Kupffer cells were isolated from all animals as follows: the liver was perfused, via the hepatic portal vein, with Hank's balanced salt solution (HBSS), followed by HBSS solution containing 0.125% ((w/v) collagenase Type IV (Sigma Chemical Co., St. Louis, Mo.). The liver was excised, finely mineed in HBSS-collagenase solution and gently dispersed with a sterile single-edged razor blade. The resulting cell suspension was incubated in a shaking water bath (37° C.) for 40 minutes. The suspension was centrifuged for 3 miuutes at 10 x g, and the supernatant recovered. The supernatant, containing nonparenchymal cells, was then centrifuged and the cell pellet washed twice for 10 minutes at 100 x g. The cell pellet was suspended in 17.5% (w/v) metrizamide (Accurate Chemical and Scientific Corp., Westbury, N.Y.) in HBSS. […]\n^3 H-thymidine-labeled sarcoma cells M5076 (2×10^4 /well) and Kupffer cells (1×10^6 /well) were added to microtiter wells. […] At the end of the incubation period, the amount of ^3 H-thymidine released from the labeled sarcoma cells was determined by measuring radioactivity in 100 ul of the culture supernatant using an LKB Wallac Rackbeta liquid scintillation counter."}, "[5]": {"test_system": "peripheral leukocytes", "experiment": "Prevention of cyclophosphamide-induced leukopenia", "type": "in vivo, mouse", "from_the_text": "Forty mice were subdivided into four gooups. Group 1, control mice, received intravenous isotonic glucose. […] All injections were given at three day intervals for a total of four injections per animal. Total leukocyte counts of peripheral blood were made on day 14."}, "[6]": {"test_system": "rats", "conditions": "i.v. 0.1 to 1.0 mg/kg/day, 9 weeks; cited from earlier work"}, "[7]": {"test_system": "dogs", "conditions": "dog, in vivo, cited from earlier work"}, "[8]": {"test_system": "E. coli", "experiment": "Resistance of normal and immunosuppressed mice to E. coli infection", "type": "in vivo, mouse (C3H/HeJ) infected with E. coli", "conditions": "corticosteroid-immunosuppressed mice (Group 3)", "from_the_text": "Sixty C3H/HeJ mice were divided into 4 groups of 15 mice each. […] Three days following the last injection, the mice received 2.5×10^7 E. coli bacteria intraperitoneally. Survival was monitored for 15 days post-infection with E. coli."}, "[9]": {"test_system": "C3H/HeJ mice", "experiment": "Survival of corticosteroid-immunosuppressed and normal C3H/HeJ mice", "type": "in vivo, mouse", "conditions": "corticosteroid alone, 1.5 mg s.c. twice weekly", "experimental": "All mice were treated twice weekly for 5 weeks, and survival was monitored for 60 days. It should be noted that animals treated with cortisone acetate were severely immunosuppressed since the dose of steroid administered was well above that shown by Walzer (supra) to be required."}}, "data": [{"compound": "O=P1(N(CCCl)CCCl)NCCCO1", "note": "(stereo not shown) [Cyclophosphamide]", "values": [{"measurement": "3H-Thymidine Uptake (bone marrow)", "setting": "[1]", "result": "818 ± 104", "unit": "CPM"}, {"measurement": "increase of bone marrow cell proliferation compared to control", "setting": "[1]; versus control group", "result": 81, "unit": "%"}, {"measurement": "Tumor Weight (% of Body Weight) Day 30", "setting": "[2]; Day 30, control 12.6, 200 mg/kg SPG, 45 mg/kg cyclophosphamide every 3 days from day 20", "result": "8.5 % of Body Weight"}, {"measurement": "Initial Mortality Time", "setting": "[2]; control 27", "result": 43, "unit": "days"}, {"measurement": "Median Survival Time", "setting": "[2]; control 34", "result": 51, "unit": "days"}, {"measurement": "Time (Days) 100% Mortality", "setting": "[2]; control 52", "result": 65, "unit": "days"}, {"measurement": "increase of tumor weight (day 20-36)", "setting": "[2]; control 142%", "result": 36, "unit": "%"}, {"measurement": "survival compared to controls", "setting": "[2]; in words", "result": "significantly enhanced survival (p<0.01)"}, {"measurement": "Tumor Weight (% of Body Weight) Day 36", "setting": "[2]; mouse, in vivo", "result": "8.7 % of Body Weight"}, {"measurement": "increase in 3H-thymidine uptake of splenocytes compared to controls", "setting": "[3]; absence of mitogen, day 12", "result": 70, "unit": "%"}, {"measurement": "splenocyte response to mitogens, single regimen", "setting": "[3]; in words, FIG. 7", "result": "significantly (p<0.001) enhanced splnnocyte response to all mitogens tested"}, {"measurement": "% 3H-Thymidine Release (Kupffer cells)", "setting": "[4]", "result": "28 ± 3", "unit": "%"}, {"measurement": "cell cytotoxicity versus control", "setting": "[4]; Kupffer cells from treated mice", "result": "no significant difference"}, {"measurement": "Total Leukocytes", "setting": "[5]; day 14, SPG 5 mg/mouse i.v., cyclophosphamide 0.6 mg/mouse i.p. every third day, control 13.8 ± 1.6", "result": "6.0 ± 0.8 thousand per cu. mm of blood"}, {"measurement": "decrease in total number of peripheral leukocytes", "setting": "[5]; versus control, P<0.01", "result": 47, "unit": "%"}]}, {"compound": "Lentinan", "values": [{"measurement": "toxicity", "setting": "[6]", "result": "development of cutaneous lesions and discoloration of the ears suggesting thromboembolic events"}, {"measurement": "circulatory collapse upon first injection", "setting": "[7]; 8 mg/kg", "result": "circulatory collapse upon the first injection"}, {"measurement": "liver morphology", "setting": "[7]; iv", "result": "intracytoplasmic material, possibly lentinan, accumulating in liver cells"}, {"measurement": "allergic response", "setting": "[7]", "result": "marked allergic response"}]}, {"compound": "CC(=O)OCC(=O)[C@@]1(O)CC[C@H]2[C@@H]3CCC4=CC(=O)CC[C@]4(C)[C@H]3C(=O)C[C@@]21C", "note": "[corticosteroid, cortisone acetate]", "values": [{"measurement": "mortality after E. coli infection at 40 hours", "setting": "[8]", "result": 50, "unit": "%"}, {"measurement": "mortality after E. coli infection at 5 days", "setting": "[8]", "result": 75, "unit": "%"}, {"measurement": "survival by day 24", "setting": "[9]", "result": 12, "unit": "%"}]}]}
